From US20060182683A1, “Methods for reduced renal uptake of protein conjugates” (Center for Molecular Medicine and Immunology, priority 1995, published 2006)

What was measured:
mice = assay: Biodistribution of 99mTc-Fab′ NP-4 under poly-L-lysine of different molecular weight and lysine/poly-lysine mixtures; conditions: for Blood level of 99mTc-Fab′ NP-4 / Kidney uptake of 99mTc-Fab′ NP-4 / Kidney uptake, % control / Liver uptake of 99mTc-Fab′ NP-4 / Lungs uptake of 99mTc-Fab′ NP-4 / Spleen uptake of 99mTc-Fab′ NP-4: 4 h p.i.
Method: Female BALB/c mice, 19 to 22 g of weight, 4 to 5 weeks of age (Charles River Laboratories, Boston, Mass.) were used as non-tumor-bearing animals. For a human tumor xenograft model, the human colon carcinoma cell line GW39 (Primus et al supra) was grown subcutaneously in 5- to 6-week-old female athymic mice (Harlan, Madison, Wis.). Animals were injected intravenously into the tail vein with approximately 5-10 μg of antibody fragment protein (i.e., 25-40 μCi of ^99mTc, ^188Re, and ^111In, resp.; 4 μCi of ^88Y, and 10 μCi of ^125I, respectively).
The mice were sacrificed after 4 h and 24 h for ^99mTc-labeled antibodies, and after 4, 24, 72, 96 and 168 h for ^125I, ^111In, ^88Y and ^188Re-labeled antibodies. Mice were sacrificed by anesthesia with sodium pentobarbital and bled by cardiac puncture. After cervical dislocation, the animals were dissected. Radioactivity in the tumors and tissues (liver, spleen, kidney, lung, intestine, blood and bone) was determined by gamma scintillation counting using an injection standard to correct for physical decay.
L-lysine, D-lysine and L-arginine monohydrochloride salts (Sigma, St. Louis, Mo.) were dissolved in phosphate-buffered saline (PBS) at a concentration of 160 mg/ml. L-lysine ethyl ester dihydrochloride was dissolved in PBS to yield a concentration of 80 mg/ml. Poly-L-lysine (1-4 kDa and 15-30 kDa) were used as hydrochloride salts at concentration of 25 mg/ml and 10 mg/ml, respectively.
Animals were injected with the lysine and/or poly-lysine solutions intraperitoneally in amounts and at frequencies as shown below. Human patients were infused intravenously over a three-hour period with 1.5 liters of a commercially available amino acid solution starting 15 min before the antibody injection. The data of a total of 77 patients examined with ^99mTc-labeled anti-CEA Fab′ (NP-4: n=19; F023C5: n=58) were taken as controls (infused with the same volume of 0.9% saline instead of the amino acid solution).
To attempt to reduce the necessity of frequent injections of the kidney uptake reducing agent, polymeric substances of higher molecular weight were investigated.
To reach maximal effectiveness with as few injections as possible, combinations of lysine and poly-lysine were tested.

[1] = tested on: GW39 colonic cancer xenograft bearing nude mice; assay: Biodistribution of anti-CEA 99mTc-Fab′ NP-4 under L-lysine / poly-L-lysine treatment; assay type: in vivo; conditions: poly-L-lys 0.15 mg/g i.v. at −30′
From the text: After cervical dislocation, the animals were dissected.

[2] = 1-4 kD, 100 μg/g once 30′ before antibody
[3] = 1-4 kD, 200 μg/g once 30′ before antibody
[4] = 1-4 kD, 300 μg/g once 30′ before antibody
[5] = 15-30 kD, 10 μg/g once 30′ before antibody
[6] = 15-30 kD, 20 μg/g once 30′ before antibody
[7] = poly-L-lysine administered twice (30′ before and 1 h after antibody), first treated column, dose and size not given
[8] = poly-L-lysine administered twice (30′ before and 1 h after antibody), second treated column, dose and size not given

For Poly-L-lysine [poly-L-lysine (1-4 kD)], the “Blood level of 99mTc-Fab′ NP-4” value (mice; [2]) was 3.8 ± 0.1, the “Kidney uptake of 99mTc-Fab′ NP-4” value (mice; [2]) was 95.5 ± 4.3 and the “Kidney uptake, % control” value (mice; [2]) was 74.8 % control. For the same substance, the “Liver uptake of 99mTc-Fab′ NP-4” value (mice; [2]) was 3.0 ± 0.2, the “Lungs uptake of 99mTc-Fab′ NP-4” value (mice; [2]) was 5.9 ± 3.1 and the “Spleen uptake of 99mTc-Fab′ NP-4” value (mice; [2]) was 3.0 ± 0.4. For the same substance, the “Blood level of 99mTc-Fab′ NP-4” value (mice; [3]) was 4.4 ± 0.5, the “Kidney uptake of 99mTc-Fab′ NP-4” value (mice; [3]) was 80.5 ± 6.9 and the “Kidney uptake, % control” value (mice; [3]) was 63.0 % control. For the same substance, the “Liver uptake of 99mTc-Fab′ NP-4” value (mice; [3]) was 3.0 ± 0.4, the “Lungs uptake of 99mTc-Fab′ NP-4” value (mice; [3]) was 3.9 ± 2.6 and the “Spleen uptake of 99mTc-Fab′ NP-4” value (mice; [3]) was 2.7 ± 0.4. The “Blood level of 99mTc-Fab′ NP-4” value (mice; [4]) was 5.3 ± 1.4, the “Kidney uptake of 99mTc-Fab′ NP-4” value (mice; [4]) was 67.9 ± 7.5 and the “Kidney uptake, % control” value (mice; [4]) was 53.2 % control. For the same substance, the “Liver uptake of 99mTc-Fab′ NP-4” value (mice; [4]) was 3.5 ± 0.8, the “Lungs uptake of 99mTc-Fab′ NP-4” value (mice; [4]) was 5.6 ± 1.0 and the “Spleen uptake of 99mTc-Fab′ NP-4” value (mice; [4]) was 3.5 ± 0.4. The “kidney uptake reduction compared with the monomer” value (mice; single i.p. injection) was “significantly lower doses than the monomer”, the “Blood level of 99mTc-Fab′ NP-4” value ([1]; 4 h p.i.) was 1.7 ± 0.2 and the “GW39 uptake of 99mTc-Fab′ NP-4” value ([1]; 4 h p.i.) was 3.0 ± 1.0. The “Kidney uptake of 99mTc-Fab′ NP-4” value ([1]; 4 h p.i.) was 30.8 ± 6.0, the “Kidney uptake, % of contr.” value ([1]; 4 h p.i.) was 52.2 % of contr and the “Liver uptake of 99mTc-Fab′ NP-4” value ([1]; 4 h p.i.) was 1.5 ± 0.2. For the same substance, the “Lung uptake of 99mTc-Fab′ NP-4” value ([1]; 4 h p.i.) was 3.1 ± 1.2, the “Spleen uptake of 99mTc-Fab′ NP-4” value ([1]; 4 h p.i.) was 1.0 ± 0.1 and the “Blood level of 99mTc-Fab′ NP-4” value ([1]; 24 h p.i.) was 0.3 ± 0.0. The “GW39 uptake of 99mTc-Fab′ NP-4” value ([1]; 24 h p.i.) was 2.2 ± 0.3, the “Kidney uptake of 99mTc-Fab′ NP-4” value ([1]; 24 h p.i.) was 25.3 ± 5.7 and the “Kidney uptake, % of contr.” value ([1]; 24 h p.i.) was 94.7 % of contr. For the same substance, the “Liver uptake of 99mTc-Fab′ NP-4” value ([1]; 24 h p.i.) was 0.9 ± 0.1, the “Lung uptake of 99mTc-Fab′ NP-4” value ([1]; 24 h p.i.) was 0.8 ± 0.6 and the “Spleen uptake of 99mTc-Fab′ NP-4” value ([1]; 24 h p.i.) was 0.7 ± 0.1.

“Poly-L-lysine [poly-L-lysine (15-30 kD)]” was tested, and the kidney uptake reduction (mice; 1×20 μg/g) was 50%, the “Blood level of 99mTc-Fab′ NP-4” value (mice; [5]) was 4.7 ± 0.3 and the “Kidney uptake of 99mTc-Fab′ NP-4” value (mice; [5]) was 73.9 ± 7.2. The “Kidney uptake, % control” value (mice; [5]) was 57.8 % control, the “Liver uptake of 99mTc-Fab′ NP-4” value (mice; [5]) was 7.3 ± 3.7 and the “Lungs uptake of 99mTc-Fab′ NP-4” value (mice; [5]) was 6.8 ± 4.3. The “Spleen uptake of 99mTc-Fab′ NP-4” value (mice; [5]) was 3.7 ± 0.4, the “Blood level of 99mTc-Fab′ NP-4” value (mice; [6]) was 4.7 ± 0.2 and the “Kidney uptake of 99mTc-Fab′ NP-4” value (mice; [6]) was 55.7 ± 6.5. For the same substance, the “Kidney uptake, % control” value (mice; [6]) was 43.6 % control, the “Liver uptake of 99mTc-Fab′ NP-4” value (mice; [6]) was 4.6 ± 0.7 and the “Lungs uptake of 99mTc-Fab′ NP-4” value (mice; [6]) was 7.9 ± 3.2. The “Spleen uptake of 99mTc-Fab′ NP-4” value (mice; [6]) was 3.8 ± 0.3.

With poly-L-lysine the “Kidney uptake of 99mTc-Fab′ NP-4” value (mice; [7]) was 43.7 ± 10.0, the “Kidney uptake, % control” value (mice; [7]) was 59.9 % control and the “Kidney uptake of 99mTc-Fab′ NP-4” value (mice; [8]) was 41.6 ± 8.8. For the same substance, the “Kidney uptake, % control” value (mice; [8]) was 56.9 % control.
